In patent US9593113B2, “Imide and acylurea derivatives as modulators of the glucocorticoid receptor” (BRISTOL-MYERS SQUIBB COMPANY, priority 2013, dated 2017):
Like-named read-outs stand apart in the source and are kept apart here.

Test system: AP-1 induced transcriptional activity
Test: Cellular transrepressional assay (AP-1 luciferase reporter, PMA-activated A549 cell)
Type: cell-based
Conditions: A549 cell, 10 ng/ml PMA, 7 hours; for EC50: read-out: AP-1 (EC50, nM) (measured in cellular transrepression assay)
Protocol: To measure the ability of test molecules to inhibit AP-1 induced transcriptional activity we utilized an A549 cell which was stably transfected with a plasmid containing 7×AP-1 DNA binding sites (pAP-1-Luc plasmid, Stratagene Co., La Jolla, Calif.) followed by the gene for luciferase. Cells were activated with 10 ng/ml of phorbol myristic acid (PMA) plus or minus test molecules for 7 hours. After 7 hours a luciferase reagent was added to measure luciferase enzymatic activity in the cell. After a 10 minute incubation of luciferase reagent with cells, luminescence was measured in a TOPCOUNT® luminescence counter. Repression of AP-1 activity was calculated as the percentage decrease in the signal induced by PMA alone. Test molecules were analyzed in the concentration range from 0.1 nM to 40 μM. EC50s were determined by using standard curve fitting methods such as Excel fit (Microsoft Co.). An EC50 is the test molecule concentration at which there is a 50% repression of the maximal inhibition of transcription, i.e., a 50% reduction of AP-1 activity.

Compound	EC50 (Homo sapiens) [nM]	AP-1 Max % inhibition (measured in cellular transrepression assay) [%]	EC50 [nM]
CC(C)(C(=O)NC(=O)Nc1ccccc1)[C@@H]1c2ccc(-c3ccc(C(=O)N4CCOCC4)cc3)nc2Oc2c(F)cccc21 [Example 21]		39.92	21.7
CC(C)(C(=O)NC(N)=O)[C@H]1c2ccccc2Oc2nc(-c3ccc(C(=O)N4CCOCC4)nc3)ccc21 [Example 55]		60.59	116
CC(C)(O)c1ccc(-c2ccc3c(n2)Oc2c(F)cccc2[C@@H]3C(C)(C)C(=O)NC(N)=O)cc1 [Example 69]	2.03	67.09	
CCNC(=O)NC(=O)C(C)(C)[C@@H]1c2ccc(-c3ccc(C(=O)N4CCOCC4)cc3)nc2Oc2c(F)cccc21 [Example 22]		44.77	8.21
CC(C)(C(=O)NC(=O)NC1CCCC1)[C@@H]1c2ccc(-c3ccc(C(=O)N4CCOCC4)cc3)nc2Oc2c(F)cccc21 [Example 20]		29.26	135
COc1ccc2c(c1)Oc1ccccc1[C@@H]2C(C)(C)C(=O)NC(N)=O [Example 74]	5000	7.70	
CC(C)(C(=O)NC(N)=O)[C@@H]1c2ccc(-c3ccc(C(=O)N4CCOCC4)c(F)c3)nc2Oc2c(F)cccc21 [Example 56]		72.50	6.39
CC(C)(C(=O)NC(N)=O)[C@H]1c2ccccc2Oc2nc(-c3ccc(C(=O)N4CCOCC4)c(F)c3)ccc21 [Example 44]		69.43	13.9
COC(=O)NC(=O)C(C)(C)[C@@H]1c2ccc(-c3ccc(C(=O)OC)cc3)nc2Oc2c(F)cccc21 [Example 26]	5000	6.98	
CC(C)(C(=O)NC(N)=O)[C@H]1c2ccccc2Oc2nc(-c3ccc(C(=O)N4CCOCC4)cc3)ccc21 [Example 28]	7.63	68.66	

Continued, in another order:

EC50 (Homo sapiens) [nM]	Compound	AP-1 Max % inhibition (measured in cellular transrepression assay) [%]	EC50 [nM]
47.1	CNC(=O)NC(=O)C(C)(C)[C@@H]1c2ccc(-c3ccc(C(C)(C)O)cc3)nc2Oc2c(F)cccc21 [Example 15]	61.15	
84.6	CC(C)(O)c1ccc(-c2ccc3c(n2)Oc2c(F)cccc2[C@@H]3C(C)(C)C(=O)NC(=O)NCCO)cc1 [Example 80]	44.42	
4.97	CC(=O)NC(=O)C(C)(C)[C@@H]1c2ccc(-c3ccc(C(=O)N4CCOCC4)cc3)nc2Oc2c(F)cccc21 [Example 2]	67.48	
180	CCC(=O)NC(=O)C(C)(C)[C@@H]1c2ccc(-c3ccc(C(=O)N4CCOCC4)cc3)nc2Oc2c(F)cccc21 [Example 5]	32.83	
199	CC(C)NC(=O)NC(=O)C(C)(C)[C@@H]1c2ccc(-c3ccc(C(=O)N4CCOCC4)cc3)nc2Oc2c(F)cccc21 [Example 19]	25.94	
6.69	CC(C)S(=O)(=O)c1ccc(-c2ccc3c(n2)Oc2ccccc2[C@@H]3C(C)(C)C(=O)NC(N)=O)cc1 [Example 82]	60.06	
623	CC(C)(C(=O)NC(=O)N1CCOCC1)[C@@H]1c2ccc(-c3ccc(C(=O)N4CCOCC4)cc3)nc2Oc2c(F)cccc21 [Example 10]	66.12	
6.65	CC(=O)NC(=O)C(C)(C)[C@H]1c2ccccc2Oc2nc(-c3ccc(C(=O)N4CCOCC4)cc3)ccc21 [Example 4]	67.93	
267	CC(=O)NC(=O)C(C)(C)[C@@H]1c2ccc(-c3ccc(C(=O)N(C)C)cc3)nc2Oc2c(F)cccc21 [Example 3]	79.66	
337	CNC(=O)NC(=O)C(C)(C)[C@@H]1c2ccc(Cl)nc2Oc2c(F)cccc21 [Example 14]	54.92	
